From patent US7118895B2, “Process for producing aglycon by using diglycosidase and flavor-improved food containing the aglycon and converting agent to be used in the process” (Amano Enzyme Inc., priority 2000, dated 2006)

Experiments:
[1] = system: Diglycosidase derived from A. fumigatus; assay: Reactivity toward various isoflavone glycosides (HPLC); format: biochemical, Aspergillus fumigatus; design: unit not given here; conditions: 55 °C, pH 4.0
Description: (§1) Diglycosidase was diluted with an acetate buffer of pH 4.0 to prepare a 0.75 AU/mL enzyme solution. As references, a similar operation was conducted using β-glucosidase (manufactured by Fluka) derived from Aspergillus niger, β-glucosidase (manufactured by Sigma) derived from almond, β-xylosidase derived from pectinase G (manufactured by Amano Enzyme Inc.). Each of purified products of isoflavone glycosides (glycitin, acetylglycitin, malonylglycitin, daidzin, acetyldaidzin, malonyldaidzin, genistin, acetylgenistin, malonylgenistin, all manufactured by Nacalai Tesque, Inc.) was dissolved in methanol to prepare each 2 mM substrate solution. The reaction was carried out by mixing 10 μL of a substrate solution, 200 μL of 20 mM acetate buffer (pH 4.0), and 40 μL of each purified enzyme solution at a total liquid volume of 250 μL. The reaction was carried out at 55° C. and isolation of an aglycon isoflavone from an isoflavone glycoside in the reaction mixture was detected by HLPC at 0, 1, 3, and 6 hours of the reaction.
(§2) To the reaction mixture was added 700 μL of ethanol, followed by stirring and ultrasonication. After centrifugation at 15,000 rpm and 4° C. for 10 minutes, the supernatant was filtered through a filter and then the filtrate was applied to HPLC.
(§3) The isoflavone glycoside and aglycon isoflavone contained in the filtrate was separated and detected by a high performance liquid chromatography (HPLC, Shimadzu CLASS LC-10 system) using TOSOH TSK gel ODS-80TM column (manufactured by Tosoh Corporation). […] The absorbance at 260 nm was detected by a UV detector (Shimadzu, SPD-10AV). Using purified products (manufactured by Nacalai Tesque, Inc.) of the above isoflavone glycosides and aglycon isoflavones, the isoflavone glycoside and aglycon isoflavone were quantitatively determined according to a calibration curve method. By the way, unless otherwise stated, the measuring conditions of HPLC herein mean those described in the example.

Purified diglycosidase = assay: Influence of free glucose on diglycosidase activity; format: biochemical, Penicillium multicolor IAM7153; conditions: isolated aglycon amount at glucose 0% and 0.5 hour = 100%
Description: Purified diglycosidase was diluted with 20 mM acetate buffer of pH 4.0 to prepare a 0.75 AU/mL enzyme solution.
With a glucose solution was mixed 10 μL of each 2 mM substrate solution described in Example 2, and 20 mM acetate buffer of pH 4.0 was added thereto to be a liquid volume of 210 μL. Further, 40 μL of the enzyme solution was added and reaction was carried out at a final liquid volume of 250 μL. Adjustment of the glucose solution to be added allows glucose to exist in the reaction mixture in the range of 0 to 20%. The reaction was carried out at 55° C. and the existence of isoflavone glycosides and aglycon isoflavones was detected by HLPC at 0, 0.5, 1, and 3 hours of the reaction.

[2] = system: β-Xylosidase derived from pectinase G; assay: Reactivity toward various isoflavone glycosides (HPLC); format: biochemical; design: unit not given here; conditions: 55 °C, pH 4.0
Description: as §1, §2, §3

[3] = system: β-Glucosidase derived from almond; assay: as above; format: biochemical; design: unit not given here; conditions: 55 °C, pH 4.0
Description: as §1, §2, §3

[4] = system: Diglycosidase derived from P. multicolor; assay: as above; format: biochemical, Penicillium multicolor; design: glucoside / aglycon: unit not given here; conditions: 55 °C, pH 4.0
Description: as §1, §2, §3

aglycon ([1]; Reaction time 0 h)	glucoside ([1]; Reaction time 0 h)	aglycon ([1]; Reaction time 1 h)	glucoside ([1]; Reaction time 1 h)	aglycon ([1]; Reaction time 3 h)	glucoside ([1]; Reaction time 3 h)	aglycon ([1]; Reaction time 6 h)	glucoside ([1]; Reaction time 6 h)	Isolation of isoflavone aglycons by diglycosidase in presence of glucose (Purified diglycosidase; Glucose concentration 0 %) [%]	Isolation of isoflavone aglycons by diglycosidase in presence of glucose (Purified diglycosidase; Glucose concentration 2 %) [%]	Isolation of isoflavone aglycons by diglycosidase in presence of glucose (Purified diglycosidase; Glucose concentration 4 %) [%]	Isolation of isoflavone aglycons by diglycosidase in presence of glucose (Purified diglycosidase; Glucose concentration 8 %) [%]	Isolation of isoflavone aglycons by diglycosidase in presence of glucose (Purified diglycosidase; Glucose concentration 20 %) [%]	aglycon ([2]; Reaction time 0 h)	glucoside ([2]; Reaction time 0 h)	aglycon ([2]; Reaction time 1 h)	glucoside ([2]; Reaction time 1 h)	aglycon ([2]; Reaction time 3 h)	glucoside ([2]; Reaction time 3 h)	aglycon ([2]; Reaction time 6 h)	SMILES	also measured
0	100	0.5	99.5	0	100	0	100	100	96	99.7	100.1	92.8	0	100	0.8	99.2	2.4	97.6	4.5	COc1cc2c(=O)c(-c3ccc(O)cc3)coc2cc1O[C@@H]1O[C@H](CO)[C@@H](O)[C@H](O)[C@H]1O [glycitin]	glucoside ([2]; Reaction time 6 h): 95.5; aglycon ([3]; Reaction time 0 h): 0; glucoside ([3]; Reaction time 0 h): 100; aglycon ([3]; Reaction time 1 h): 1.6; glucoside ([3]; Reaction time 1 h): 98.4; aglycon ([3]; Reaction time 3 h): 1.9; glucoside ([3]; Reaction time 3 h): 98.1; aglycon ([3]; Reaction time 6 h): 1.9; glucoside ([3]; Reaction time 6 h): 98.1; aglycon ([4]; Reaction time 0 h): 0; glucoside ([4]; Reaction time 0 h): 100; aglycon ([4]; Reaction time 1 h): 97.9; glucoside ([4]; Reaction time 1 h): 2.1; aglycon ([4]; Reaction time 3 h): 99.8; glucoside ([4]; Reaction time 3 h): 0.2; aglycon ([4]; Reaction time 6 h): 99.7; glucoside ([4]; Reaction time 6 h): 0.3
0	100	10	90	20.5	79.5	32.3	67.7	100	125.3	132.1	125.4	98.1	0	100	0.4	99.6	1.6	98.4	3.3	O=C(O)CC(=O)OC[C@H]1O[C@@H](Oc2ccc3c(=O)c(-c4ccc(O)cc4)coc3c2)[C@H](O)[C@@H](O)[C@@H]1O [malonyldaidzin, 6″-O-malonyldaidzin]	glucoside ([2]; Reaction time 6 h): 96.7; aglycon ([3]; Reaction time 0 h): 0; glucoside ([3]; Reaction time 0 h): 100; aglycon ([3]; Reaction time 1 h): 0; glucoside ([3]; Reaction time 1 h): 100; aglycon ([3]; Reaction time 3 h): 0; glucoside ([3]; Reaction time 3 h): 100; aglycon ([3]; Reaction time 6 h): 0; glucoside ([3]; Reaction time 6 h): 100; aglycon ([4]; Reaction time 0 h): 0; glucoside ([4]; Reaction time 0 h): 100; aglycon ([4]; Reaction time 1 h): 50.8; glucoside ([4]; Reaction time 1 h): 49.2; aglycon ([4]; Reaction time 3 h): 60.1; glucoside ([4]; Reaction time 3 h): 39.9; aglycon ([4]; Reaction time 6 h): 61.5; glucoside ([4]; Reaction time 6 h): 38.5
0	100	2.4	97.6	5.2	94.8	8.2	91.8	100	152	164.7	163.5	139.5	0	100	0	100	0.6	99.4	2	O=C(O)CC(=O)OC[C@H]1O[C@@H](Oc2cc(O)c3c(=O)c(-c4ccc(O)cc4)coc3c2)[C@H](O)[C@@H](O)[C@@H]1O [malonylgenistin, 6″-O-malonylgenistin]	glucoside ([2]; Reaction time 6 h): 98; aglycon ([3]; Reaction time 0 h): 0; glucoside ([3]; Reaction time 0 h): 100; aglycon ([3]; Reaction time 1 h): 0; glucoside ([3]; Reaction time 1 h): 100; aglycon ([3]; Reaction time 3 h): 0; glucoside ([3]; Reaction time 3 h): 100; aglycon ([3]; Reaction time 6 h): 0; glucoside ([3]; Reaction time 6 h): 100; aglycon ([4]; Reaction time 0 h): 0; glucoside ([4]; Reaction time 0 h): 100; aglycon ([4]; Reaction time 1 h): 74.2; glucoside ([4]; Reaction time 1 h): 25.8; aglycon ([4]; Reaction time 3 h): 82.1; glucoside ([4]; Reaction time 3 h): 17.9; aglycon ([4]; Reaction time 6 h): 82.3; glucoside ([4]; Reaction time 6 h): 17.7
0	100	0.4	99.6	0.8	99.2	1.4	98.6	100	121.4	127.6	128.6	116.4	0	100	0	100	0	100	0.4	COc1cc2c(=O)c(-c3ccc(O)cc3)coc2cc1O[C@@H]1O[C@H](COC(=O)CC(=O)O)[C@@H](O)[C@H](O)[C@H]1O [malonylglycitin, 6″-O-malonylglycitin]	glucoside ([2]; Reaction time 6 h): 99.6; aglycon ([3]; Reaction time 0 h): 0; glucoside ([3]; Reaction time 0 h): 100; aglycon ([3]; Reaction time 1 h): 0; glucoside ([3]; Reaction time 1 h): 100; aglycon ([3]; Reaction time 3 h): 0; glucoside ([3]; Reaction time 3 h): 100; aglycon ([3]; Reaction time 6 h): 0; glucoside ([3]; Reaction time 6 h): 100; aglycon ([4]; Reaction time 0 h): 0; glucoside ([4]; Reaction time 0 h): 100; aglycon ([4]; Reaction time 1 h): 78.3; glucoside ([4]; Reaction time 1 h): 21.7; aglycon ([4]; Reaction time 3 h): 84.5; glucoside ([4]; Reaction time 3 h): 15.5; aglycon ([4]; Reaction time 6 h): 86; glucoside ([4]; Reaction time 6 h): 14
